Test results as given in patent US11591354B2, “Thiamine compound, preparation method and pharmaceutical composition thereof” (SHANGHAI RAISING PHARMACEUTICAL CO., LTD., priority 2018, dated 2023).

What was measured:
Aβ42 = Aβ42 content secreted by HEK293APP/sw overexpression cells after compound treatment (ELISA of supernatant); assay type: cell-based; details: 24 h; for Aβ42 content: APP/293 (HEK293APP/sw) cells, test sample 400 μM, culture supernatant, adjusted by total protein concentration, blank 11.08; for content of Aβ42 compared with benfotiamine in Comparative Example 2: APP/293 cells, 400 μM, in words
Procedure: (§1) (1) A BCA Protein Concentration Kit was purchased from Beyotime Biotechnology, a detection kit for Aβ40 and Aβ42 was purchased from Wako Co., Ltd., and cell culture related reagents were purchased from Gibico Co., Ltd.
(§2) (2) HEK293APP/sw overexpression cell culture: cells were cultured in a 48-well plate in DMEM culture medium (containing 10% FBS, 100 μg/mL G418 (Geneticin) and diabody), 4 mM stock solution of a test sample (prepared by dissolving the test sample in DMEM culture medium) was diluted to 400 μM in DMEM culture medium at a cell density of 70%, to each well was added 500 μL of the test sample, and the cells were cultured for 24 h.
(§3) (3) To the culture solution supernatant was added a BCA reagent, after incubating for 30 min at room temperature, absorbance of each well was measured at OD […] with a microplate reader, and a total protein concentration was calculated according to a protein standard curve; concentrations of Aβ40 and Aβ42 were measured with supernatant: the supernatant was added into a coated 96-well plate, followed by incubating overnight at 4° C., the reagent was removed and washed, HRP (horseradish peroxidase) labeled antibody was added, followed by incubating for 2 h at 4° C., the reagent was removed and washed, a TMB color developing solution was added, followed by incubating for 30 min at room temperature, a stop solution was added to stop reaction, absorbance of each well was measured at OD […] with a microplate reader, concentrations of Aβ40 and Aβ42 were calculated according to standard curves of A40 and Aβ42 respectively, and finally the concentrations of Aβ40 and Aβ42 were adjusted by using a total protein concentration to obtain a final concentration.

Aβ40 = Aβ40 content secreted by HEK293APP/sw overexpression cells after compound treatment (ELISA of supernatant); assay type: cell-based; details: 24 h; for Aβ40 content: APP/293 (HEK293APP/sw) cells, test sample 400 μM, culture supernatant, adjusted by total protein concentration, blank 127.81; for content of Aβ40 compared with benfotiamine in Comparative Example 2: APP/293 cells, 400 μM, in words
Procedure: as §1, §2, §3

SMILES | Aβ42 content (Aβ42) [pmol/L] | Aβ40 content (Aβ40) [pmol/L] | content of Aβ42 compared with benfotiamine in Comparative Example 2 (Aβ42) | content of Aβ40 compared with benfotiamine in Comparative Example 2 (Aβ40)
C/C(=C(\CCOP(=O)(O)O)SC(=O)c1ccccc1)N(C=O)Cc1cnc(C)nc1N [Comparative Example 2, benfotiamine, reference compound] | 5.04 | 53.77 | – | –
CCCC(=O)S/C(CCOP(=O)(O)O)=C(/C)N(C=O)Cc1cnc(C)nc1N [Example 1, (Z)—S-(2-(N-((4-amino-2-methylpyrimidin-5-yl)methyl) formamido)-5-(phosphonooxy)pent-2-en-3-yl) butanethioate] | 8.59 | 45.47 | – | –
CCCCCCCCCC(=O)S/C(CCOP(=O)(O)O)=C(/C)N(C=O)Cc1cnc(C)nc1N [Example 2, (Z)—S-(2-(N-((4-amino-2-methylpyrimidin-5-yl)methyl) formamido)-5-(phosphonooxy)pent-2-en-3-yl) decanethioate] | 5.37 | 75.15 | – | –
CCCCCCCCCCCC(=O)S/C(CCOP(=O)(O)O)=C(/C)N(C=O)Cc1cnc(C)nc1N [Example 3, (Z)—S-(2-(N-((4-amino-2-methylpyrimidin-5-yl)methyl) formamido)-5-(phosphonooxy)pent-2-en-3-yl) dodecanethioate] | 4.93 | 128.90 | – | –
C/C=C(\C)C(=O)S/C(CCOP(=O)(O)O)=C(/C)N(C=O)Cc1cnc(C)nc1N [Example 4, (E)-S—((Z)-2-(N-((4-amino-2-methylpyrimidin-5-yl)methyl) formamido)-5-(phosphonooxy)pent-2-en-3-yl) 2-methylbut-2-enethioate] | 5.77 | 71.80 | – | –
CCC(C)C(=O)S/C(CCOP(=O)(O)O)=C(/C)N(C=O)Cc1cnc(C)nc1N (stereo not drawn) [Example 5, (Z)—S-(2-(N-((4-amino-2-methylpyrimidin-5-yl)methyl) formamido)-5-(phosphonooxy)pent-2-en-3-yl) 2-methylbutanethioate] | 2.09 | 37.65 | significantly reduced | significantly reduced
C/C(=C(\CCOP(=O)(O)O)SC(=O)C(C)C)N(C=O)Cc1cnc(C)nc1N [Example 6, (Z)—S-(2-(N-((4-amino-2-methylpyrimidin-5-yl)methyl) formamido)-5-(phosphonooxy)pent-2-en-3-yl) 2-methylpropanethioate] | 2.41 | 44.38 | significantly reduced | significantly reduced
CCCCCCCC(=O)S/C(CCOP(=O)(O)O)=C(/C)N(C=O)Cc1cnc(C)nc1N [Example 7, (Z)—S-(2-(N-((4-amino-2-methylpyrimidin-5-yl)methyl) formamido)-5-(phosphonooxy)pent-2-en-3-yl) octanethioate] | 6.09 | 106.81 | – | –
C/C(=C(\CCOP(=O)(O)O)SC(=O)CCc1ccccc1)N(C=O)Cc1cnc(C)nc1N [Example 8, (Z)—S-(2-(N-((4-amino-2-methylpyrimidin-5-yl)methyl) formamido)-5-(phosphonooxy)pent-2-en-3-yl) 3-phenylpropanethioate] | 6.38 | 57.86 | – | –
C=CCCCC(=O)S/C(CCOP(=O)(O)O)=C(/C)N(C=O)Cc1cnc(C)nc1N [Example 9, (Z)—S-(2-(N-((4-amino-2-methylpyrimidin-5-yl)methyl) formamido)-5-(phosphonooxy)pent-2-en-3-yl) hex-5-enethioate] | 5.70 | 80.40 | – | –
C/C(=C(\CCOP(=O)(O)O)SC(=O)Cc1c(F)cccc1F)N(C=O)Cc1cnc(C)nc1N [Example 10, (Z)—S-(2-(N-((4-amino-2-methylpyrimidin-5-yl)methyl) formamido)-5-(phosphonooxy)pent-2-en-3-yl) 2-(2,6-difluorophenyl) ethanethioate] | 10.62 | 71.11 | – | –
C=CC(C)(C)C(=O)S/C(CCOP(=O)(O)O)=C(/C)N(C=O)Cc1cnc(C)nc1N [Example 11, (Z)—S-(2-(N-((4-amino-2-methylpyrimidin-5-yl)methyl) formamido)-5-(phosphonooxy)pent-2-en-3-yl) 2,2-dimethylbut-3-enethioate] | 3.22 | 54.75 | reduced | substantially the same
CCC/C=C/C(=O)S/C(CCOP(=O)(O)O)=C(/C)N(C=O)Cc1cnc(C)nc1N [Example 12, (E)-S—((Z)-2-(N-((4-amino-2-methylpyrimidin-5-yl)methyl) formamido)-5-(phosphonooxy)pent-2-en-3-yl) hex-2-enethioate] | 0.34 | 32.87 | significantly reduced | significantly reduced
CCCCC(CC)C(=O)S/C(CCOP(=O)(O)O)=C(/C)N(C=O)Cc1cnc(C)nc1N (stereo not drawn) [Example 13, (Z)—S-(2-(N-((4-amino-2-methylpyrimidin-5-yl)methyl) formamido)-5-(phosphonooxy)pent-2-en-3-yl) 2-ethylhexanethioate] | 24.36 | 56.28 | – | –
CCCC(C)C(=O)S/C(CCOP(=O)(O)O)=C(/C)N(C=O)Cc1cnc(C)nc1N (stereo not drawn) [Example 14, (Z)—S-(2-(N-((4-amino-2-methylpyrimidin-5-yl)methyl) formamido)-5-(phosphonooxy)pent-2-en-3-yl) 2-methylpentanethioate] | 6.79 | 60.34 | – | –
CCCCC(C)C(=O)S/C(CCOP(=O)(O)O)=C(/C)N(C=O)Cc1cnc(C)nc1N (stereo not drawn) [Example 15, (Z)—S-(2-(N-((4-amino-2-methylpyrimidin-5-yl)methyl) formamido)-5-(phosphonooxy)pent-2-en-3-yl) 2-methylhexanethioate] | 9.59 | 40.39 | – | –
CCC(C)(C)C(=O)S/C(CCOP(=O)(O)O)=C(/C)N(C=O)Cc1cnc(C)nc1N [Example 16, (Z)—S-(2-(N-((4-amino-2-methylpyrimidin-5-yl)methyl) formamido)-5-(phosphonooxy)pent-2-en-3-yl) 2,2-dimethylbutanethioate] | 33.70 | 85.96 | – | –
CCCCC(C)(C)C(=O)S/C(CCOP(=O)(O)O)=C(/C)N(C=O)Cc1cnc(C)nc1N [Example 17, (Z)—S-(2-(N-((4-amino-2-methylpyrimidin-5-yl)methyl) formamido)-5-(phosphonooxy)pent-2-en-3-yl) 2,2-dimethylhexanethioate] | 6.24 | 77.22 | – | –
